The text below walks through data of PMC10924921, “Mi-2β promotes immune evasion in melanoma by activating EZH2 methylation” (Nature Communications, 2024).

In series [1] the target is recombinant purified human Mi-2β protein (Homo sapiens, UniProt Q14839). In words: FRET-based nucleosome repositioning assay (EpiDyne-FRET). The settings on record: read-out: apparent ATP Km; ATP titration 0.1 to 300 µM, 12.5 nM Mi-2β, 15 minutes.
For series [2], the system named is BRafV600E/Ptennull melanoma cells with or without Mi-2β. Put plainly: CCK-8 proliferation after Braf inhibitor. The class given is cell-based, mouse. The settings on record: 10 μM, 24 h. The procedure: To test whether Mi-2β deficiency affects the sensitivity of tumor cells to Braf inhibitors, melanoma cells were isolated from Tyr::CreER;BRaf^CA;Pten^lox/lox and Tyr::CreER;BRaf^CA;Pten^lox/lox; Mi-2β^lox/lox mice and a cell proliferation assay was performed. BRAF mutation and Mi-2β-depleted melanoma cells or BRAF mutation melanoma cells (5 × 10^3 cells/100 μl) were cultured with 10 μM PLX4032 (Selleck, China) for 24 h and cell proliferation of melanoma cells were determined using the CCK-8 assay.
Supplementary Figure 2. […] Scale bar=200 µm. b Tumor-infiltrating lymphocytes were assayed by flow cytometry. c Treg cells within CD45+ T cells in TILs were assayed and quantified by flow cytometry.
(n=5). d Melanomas isolated from BRafV600E/Ptennull mice and BRafV600E/Ptennull /Mi-2βnull mice were processed for immunohistochemistry staining to detect the number of CD8+ T cells. […] Melanoma cells isolated from Tyr::CreER;BRafCA;Ptenlox/lox and Tyr::CreER;BRafCA;Ptenlox/lox;Mi-2βlox/lox mice were treated with PLX4032 (10μM) for 24 hours and cell proliferation was determined by CCK-8 assay (n=6). c, e, f: Values represent mean ± SD. […]

Series [3] concerns PC3 prostate cancer cells. Also on record: method as in Shubhada Sharma, et al., Biochemistry 2013. The settings on record: ref Shubhada Sharma, et al., Biochemistry 2013; read-out: IC50, cytotoxicity; cited from earlier work.
The test system of a further series is melanoma. The conditions noted are these: cited from earlier work.

pIC50: −log10 of the molar value.

Sequence of recombinant purified human Mi-2β protein (Q14839 whole entry): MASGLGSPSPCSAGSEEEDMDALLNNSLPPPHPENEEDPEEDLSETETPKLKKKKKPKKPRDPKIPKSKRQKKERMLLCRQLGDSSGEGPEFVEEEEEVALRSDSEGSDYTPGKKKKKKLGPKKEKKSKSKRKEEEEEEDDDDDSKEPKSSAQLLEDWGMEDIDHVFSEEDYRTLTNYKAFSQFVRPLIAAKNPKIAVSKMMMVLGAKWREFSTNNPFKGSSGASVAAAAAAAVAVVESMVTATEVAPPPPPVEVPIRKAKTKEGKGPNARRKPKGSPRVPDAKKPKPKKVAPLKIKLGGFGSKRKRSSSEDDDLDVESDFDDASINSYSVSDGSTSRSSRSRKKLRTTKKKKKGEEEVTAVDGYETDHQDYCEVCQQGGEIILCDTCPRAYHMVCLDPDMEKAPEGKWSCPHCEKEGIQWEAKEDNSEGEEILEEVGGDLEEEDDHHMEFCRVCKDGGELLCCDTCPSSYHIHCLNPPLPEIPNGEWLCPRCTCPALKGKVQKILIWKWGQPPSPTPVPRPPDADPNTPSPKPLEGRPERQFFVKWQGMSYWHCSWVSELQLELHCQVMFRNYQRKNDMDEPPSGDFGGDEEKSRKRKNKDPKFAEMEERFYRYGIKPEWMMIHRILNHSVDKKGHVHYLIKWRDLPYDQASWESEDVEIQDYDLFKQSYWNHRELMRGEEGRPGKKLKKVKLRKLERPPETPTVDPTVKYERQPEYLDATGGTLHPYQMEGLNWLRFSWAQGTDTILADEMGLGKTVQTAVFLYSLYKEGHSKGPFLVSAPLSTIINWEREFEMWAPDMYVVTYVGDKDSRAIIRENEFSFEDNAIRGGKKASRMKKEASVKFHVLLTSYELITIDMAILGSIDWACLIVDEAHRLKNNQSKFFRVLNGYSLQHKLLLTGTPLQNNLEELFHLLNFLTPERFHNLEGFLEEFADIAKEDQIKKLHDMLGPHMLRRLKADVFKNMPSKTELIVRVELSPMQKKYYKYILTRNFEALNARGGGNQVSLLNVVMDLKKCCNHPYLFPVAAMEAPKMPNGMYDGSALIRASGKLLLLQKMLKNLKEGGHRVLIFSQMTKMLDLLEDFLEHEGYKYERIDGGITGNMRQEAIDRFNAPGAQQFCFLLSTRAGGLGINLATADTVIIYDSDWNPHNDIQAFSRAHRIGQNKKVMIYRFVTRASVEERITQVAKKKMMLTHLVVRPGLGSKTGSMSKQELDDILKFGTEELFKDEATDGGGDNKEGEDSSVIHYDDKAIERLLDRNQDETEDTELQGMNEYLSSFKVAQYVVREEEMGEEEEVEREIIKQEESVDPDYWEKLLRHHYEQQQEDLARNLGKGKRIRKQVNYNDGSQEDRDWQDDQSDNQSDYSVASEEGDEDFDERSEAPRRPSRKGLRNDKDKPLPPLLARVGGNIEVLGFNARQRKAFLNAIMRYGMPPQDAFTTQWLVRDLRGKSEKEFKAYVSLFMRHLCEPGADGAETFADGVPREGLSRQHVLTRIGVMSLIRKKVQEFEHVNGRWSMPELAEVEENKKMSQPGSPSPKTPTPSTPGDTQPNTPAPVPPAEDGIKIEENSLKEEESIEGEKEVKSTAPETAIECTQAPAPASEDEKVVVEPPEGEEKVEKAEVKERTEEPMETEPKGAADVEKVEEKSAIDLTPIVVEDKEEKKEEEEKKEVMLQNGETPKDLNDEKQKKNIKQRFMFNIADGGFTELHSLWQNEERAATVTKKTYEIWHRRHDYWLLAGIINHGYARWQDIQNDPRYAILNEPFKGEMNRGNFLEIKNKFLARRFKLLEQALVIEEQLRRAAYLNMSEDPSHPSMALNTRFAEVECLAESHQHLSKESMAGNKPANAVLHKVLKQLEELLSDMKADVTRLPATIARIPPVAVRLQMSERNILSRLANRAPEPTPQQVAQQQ

As to `Nc1ncnc2c1ncn2[C@@H]1O[C@H](COP(=O)(O)OP(=O)(O)OP(=O)(O)O)[C@@H](O)[C@H]1O` [ATP], the Michaelis constant (Km) – broadly, the substrate concentration at which the rate is half of its maximum – in series [1] was 11.5 µM.

As for `CCCS(=O)(=O)Nc1ccc(F)c(C(=O)c2c[nH]c3ncc(-c4ccc(Cl)cc4)cc23)c1F` [PLX4032], in series [2], the “cell survival in melanoma cells with or without Mi-2β expression” value is “no difference in cell survival”.

On to `CC(=O)O[C@H]1C(=O)[C@@]2(C)[C@H]([C@H](OC(=O)c3ccccc3)[C@]3(O)C[C@H](OC(=O)[C@H](O)[C@@H](NC(=O)c4ccccc4)c4ccccc4)C(C)=C1C3(C)C)[C@]1(OC(C)=O)CO[C@@H]1C[C@@H]2O` [paclitaxel], for which the pIC50 (in general, the IC50 on a negative log10 scale, so that one unit is a factor of ten) in series [3] is 8.85.

For the compound ipilimumab: anti-CTLA-4 antibody, the “melanoma patients that respond” value with melanoma was 20%.

Regarding pembrolizumab: anti-PD-1 antibody, the “melanoma patients that respond” value in the series with melanoma is given as 33%.
